Laboratory results as given in PubChem BioAssay (NCI).
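Assay format: 96-well plates, 48-hour exposure. GI50 is the concentration that inhibits growth by half. Definition used: TGI = concentration required for complete inhibition of growth.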

Columns and labels:
Assay in all cases: DTP human tumour cell line panel, 48 h
NCI-H460 lung = system: NCI-H460 lung
NCI/ADR-RES ovarian = system: NCI/ADR-RES ovarian
MDA-MB-435 = system: MDA-MB-435
UACC-62 melanoma = system: UACC-62 melanoma
NCI-H23 lung = system: NCI-H23 lung
786-0 renal = system: 786-0 renal
SK-OV-3 ovarian = system: SK-OV-3 ovarian
SNB-75 CNS = system: SNB-75 CNS
UO-31 renal = system: UO-31 renal
U251 CNS = system: U251 CNS
A498 renal = system: A498 renal
MOLT-4 leukemia = system: MOLT-4 leukemia
LOX IMVI melanoma = system: LOX IMVI melanoma
HS 578T breast = system: HS 578T breast
SK-MEL-28 melanoma = system: SK-MEL-28 melanoma
DU-145 prostate = system: DU-145 prostate
OVCAR-8 ovarian = system: OVCAR-8 ovarian
NCI-H522 lung = system: NCI-H522 lung
SF-268 CNS = system: SF-268 CNS
CAKI-1 renal = system: CAKI-1 renal
MDA-MB-231 breast = system: MDA-MB-231 breast
OVCAR-3 ovarian = system: OVCAR-3 ovarian
SF-539 CNS = system: SF-539 CNS
T-47D breast = system: T-47D breast
KM12 colon = system: KM12 colon
SN12C renal = system: SN12C renal
A549 NSCLC = system: A549 NSCLC
PC-3 prostate = system: PC-3 prostate
MALME-3M melanoma = system: MALME-3M melanoma
HOP-62 NSCLC = system: HOP-62 NSCLC
HCT-116 colon = system: HCT-116 colon
COLO 205 colon = system: COLO 205 colon
ACHN renal = system: ACHN renal
M14 melanoma = system: M14 melanoma
MCF7 breast = system: MCF7 breast
SK-MEL-2 melanoma = system: SK-MEL-2 melanoma
RXF 393 renal = system: RXF 393 renal
CCRF-CEM leukemia = system: CCRF-CEM leukemia
TK-10 renal = system: TK-10 renal
SK-MEL-5 melanoma = system: SK-MEL-5 melanoma
SF-295 CNS = system: SF-295 CNS
HL-60(TB) leukemia = system: HL-60(TB) leukemia
NCI-H226 lung = system: NCI-H226 lung
HCC-2998 colon = system: HCC-2998 colon
BT-549 breast = system: BT-549 breast
HOP-92 NSCLC = system: HOP-92 NSCLC
RPMI-8226 leukemia = system: RPMI-8226 leukemia
K-562 leukemia = system: K-562 leukemia
UACC-257 melanoma = system: UACC-257 melanoma
HT29 colon = system: HT29 colon
HCT-15 colon = system: HCT-15 colon
OVCAR-5 ovarian = system: OVCAR-5 ovarian
IGROV1 ovarian = system: IGROV1 ovarian
SW-620 colon = system: SW-620 colon
OVCAR-4 ovarian = system: OVCAR-4 ovarian
SNB-19 CNS = system: SNB-19 CNS
EKVX NSCLC = system: EKVX NSCLC
SR leukemia = system: SR leukemia

With `COc1cccc(Sc2ccc([N+](=O)[O-])c3no[n+]([O-])c23)c1` the GI50 (NCI-H460 lung) was 18.7 µM, the TGI (NCI-H460 lung) was 40.8 µM and the GI50 (NCI/ADR-RES ovarian) was 5.97 µM. For the same compound, the TGI (NCI/ADR-RES ovarian) was 19.1 µM, the GI50 (MDA-MB-435) was 13.4 µM and the TGI (MDA-MB-435) was 43.1 µM. For the same compound, the GI50 (UACC-62 melanoma) was 13.7 µM, the TGI (UACC-62 melanoma) was 36 µM and the GI50 (NCI-H23 lung) was 7.14 µM. It also gave a TGI (NCI-H23 lung) of 25 µM, a GI50 (786-0 renal) of 19.5 µM and a TGI (786-0 renal) of 34.8 µM. The GI50 (SK-OV-3 ovarian) was 29.8 µM, the TGI (SK-OV-3 ovarian) was > 77.7 µM and the GI50 (SNB-75 CNS) was 13.9 µM. For the same compound, the TGI (SNB-75 CNS) was 39.4 µM, the GI50 (UO-31 renal) was 2.27 µM and the TGI (UO-31 renal) was 7.74 µM. It also gave a GI50 (U251 CNS) of 13.1 µM, a TGI (U251 CNS) of 30.3 µM and a GI50 (A498 renal) of 15.7 µM. The TGI (A498 renal) was 34.6 µM, the GI50 (MOLT-4 leukemia) was 4.27 µM and the TGI (MOLT-4 leukemia) was 16.5 µM. The GI50 (LOX IMVI melanoma) was 3.38 µM, the TGI (LOX IMVI melanoma) was 11.5 µM and the GI50 (HS 578T breast) was 16.2 µM. The TGI (HS 578T breast) was 61.7 µM, the GI50 (SK-MEL-28 melanoma) was 6.52 µM and the TGI (SK-MEL-28 melanoma) was 14 µM. It also gave a GI50 (DU-145 prostate) of 11.3 µM, a TGI (DU-145 prostate) of 24.4 µM and a GI50 (OVCAR-8 ovarian) of 6.22 µM. The TGI (OVCAR-8 ovarian) was 24.8 µM, the GI50 (NCI-H522 lung) was 1.98 µM and the TGI (NCI-H522 lung) was 3.93 µM. It also gave a GI50 (SF-268 CNS) of 12.5 µM, a TGI (SF-268 CNS) of 30 µM and a GI50 (CAKI-1 renal) of 10.5 µM. It also gave a TGI (CAKI-1 renal) of 24.1 µM, a GI50 (MDA-MB-231 breast) of 11.2 µM and a TGI (MDA-MB-231 breast) of 28 µM. For the same compound, the GI50 (OVCAR-3 ovarian) was 2.83 µM, the TGI (OVCAR-3 ovarian) was 7.48 µM and the GI50 (SF-539 CNS) was 14.7 µM. For the same compound, the TGI (SF-539 CNS) was 28.1 µM, the GI50 (T-47D breast) was 3.36 µM and the TGI (T-47D breast) was 14.4 µM. It also gave a GI50 (KM12 colon) of 17.2 µM, a TGI (KM12 colon) of 33.5 µM and a GI50 (SN12C renal) of 16.9 µM. The TGI (SN12C renal) was 46.8 µM, the GI50 (A549 NSCLC) was 36.1 µM and the TGI (A549 NSCLC) was > 100 µM. For the same compound, the GI50 (PC-3 prostate) was 16.9 µM, the TGI (PC-3 prostate) was > 54.5 µM and the GI50 (MALME-3M melanoma) was 4.67 µM. It also gave a TGI (MALME-3M melanoma) of 15 µM, a GI50 (HOP-62 NSCLC) of 25.2 µM and a TGI (HOP-62 NSCLC) of 50 µM. The GI50 (HCT-116 colon) was 3.7 µM, the TGI (HCT-116 colon) was 14.4 µM and the GI50 (COLO 205 colon) was 2.49 µM. It also gave a TGI (COLO 205 colon) of 7.31 µM, a GI50 (ACHN renal) of 2.84 µM and a TGI (ACHN renal) of 8.78 µM. The GI50 (M14 melanoma) was 14.3 µM, the TGI (M14 melanoma) was 33.9 µM and the GI50 (MCF7 breast) was 4.87 µM. It also gave a TGI (MCF7 breast) of 20.6 µM, a GI50 (SK-MEL-2 melanoma) of 20.9 µM and a TGI (SK-MEL-2 melanoma) of 45.2 µM. For the same compound, the GI50 (RXF 393 renal) was 8.99 µM, the TGI (RXF 393 renal) was 23.8 µM and the GI50 (CCRF-CEM leukemia) was 2.6 µM. The TGI (CCRF-CEM leukemia) was 8.14 µM, the GI50 (TK-10 renal) was 10.9 µM and the TGI (TK-10 renal) was 24.7 µM. The GI50 (SK-MEL-5 melanoma) was 15.1 µM, the TGI (SK-MEL-5 melanoma) was 29.5 µM and the GI50 (SF-295 CNS) was 24.5 µM. It also gave a TGI (SF-295 CNS) of 62.8 µM, a GI50 (HL-60(TB) leukemia) of 5.12 µM and a TGI (HL-60(TB) leukemia) of 14.6 µM. It also gave a GI50 (NCI-H226 lung) of 18.2 µM, a TGI (NCI-H226 lung) of 53.5 µM and a GI50 (HCC-2998 colon) of 22.3 µM. For the same compound, the TGI (HCC-2998 colon) was 46.3 µM, the GI50 (BT-549 breast) was 8.06 µM and the TGI (BT-549 breast) was 22.1 µM. It also gave a GI50 (HOP-92 NSCLC) of 15.5 µM, a TGI (HOP-92 NSCLC) of 32.7 µM and a GI50 (RPMI-8226 leukemia) of 3.67 µM. The TGI (RPMI-8226 leukemia) was 21 µM, the GI50 (K-562 leukemia) was 3.66 µM and the TGI (K-562 leukemia) was 13 µM. For the same compound, the GI50 (UACC-257 melanoma) was 14 µM, the TGI (UACC-257 melanoma) was 29.9 µM and the GI50 (HT29 colon) was 9.8 µM. The TGI (HT29 colon) was > 55.6 µM, the GI50 (HCT-15 colon) was 7.82 µM and the TGI (HCT-15 colon) was 23.1 µM. For the same compound, the GI50 (OVCAR-5 ovarian) was 8.31 µM, the TGI (OVCAR-5 ovarian) was 20.2 µM and the GI50 (IGROV1 ovarian) was 5.63 µM. It also gave a TGI (IGROV1 ovarian) of 20.8 µM, a GI50 (SW-620 colon) of 2.5 µM and a TGI (SW-620 colon) of 6.14 µM. It also gave a GI50 (OVCAR-4 ovarian) of 10.1 µM, a TGI (OVCAR-4 ovarian) of 27 µM and a GI50 (SNB-19 CNS) of 35 µM. The TGI (SNB-19 CNS) was > 88.3 µM, the GI50 (EKVX NSCLC) was 14.8 µM and the TGI (EKVX NSCLC) was 39.5 µM.
In the case of `O=C(N/N=C\c1cccs1)c1ccncc1`, the TGI (NCI-H460 lung) is reported as > 100 µM, the TGI (NCI/ADR-RES ovarian) is reported as > 100 µM and the TGI (MDA-MB-435) is reported as > 100 µM. For the same compound, the TGI (UACC-62 melanoma) was > 100 µM, the TGI (NCI-H23 lung) was > 100 µM and the TGI (786-0 renal) was > 100 µM. The TGI (SK-OV-3 ovarian) was > 100 µM, the TGI (SNB-75 CNS) was > 100 µM and the TGI (UO-31 renal) was > 100 µM. The TGI (U251 CNS) was > 100 µM, the TGI (A498 renal) was > 100 µM and the TGI (MOLT-4 leukemia) was > 100 µM. For the same compound, the TGI (HS 578T breast) was > 100 µM, the TGI (SK-MEL-28 melanoma) was > 100 µM and the TGI (OVCAR-8 ovarian) was > 100 µM. The TGI (NCI-H522 lung) was > 100 µM, the TGI (SF-268 CNS) was > 100 µM and the TGI (CAKI-1 renal) was > 100 µM. The TGI (MDA-MB-231 breast) was > 100 µM, the TGI (OVCAR-3 ovarian) was > 100 µM and the TGI (SF-539 CNS) was > 100 µM. For the same compound, the TGI (T-47D breast) was > 100 µM, the TGI (SR leukemia) was > 100 µM and the TGI (KM12 colon) was > 100 µM. For the same compound, the TGI (SN12C renal) was > 100 µM, the TGI (A549 NSCLC) was > 100 µM and the TGI (PC-3 prostate) was > 100 µM. The TGI (MALME-3M melanoma) was > 100 µM, the TGI (HOP-62 NSCLC) was > 100 µM and the TGI (HCT-116 colon) was > 100 µM. For the same compound, the TGI (COLO 205 colon) was > 100 µM, the TGI (ACHN renal) was > 100 µM and the TGI (M14 melanoma) was > 100 µM. For the same compound, the TGI (MCF7 breast) was > 100 µM, the TGI (SK-MEL-2 melanoma) was > 100 µM and the TGI (RXF 393 renal) was > 100 µM. For the same compound, the TGI (CCRF-CEM leukemia) was > 100 µM, the TGI (TK-10 renal) was > 100 µM and the TGI (SK-MEL-5 melanoma) was > 100 µM. For the same compound, the TGI (SF-295 CNS) was > 100 µM, the TGI (HL-60(TB) leukemia) was > 100 µM and the TGI (NCI-H226 lung) was > 100 µM. For the same compound, the TGI (HCC-2998 colon) was > 100 µM, the TGI (BT-549 breast) was > 100 µM and the TGI (HOP-92 NSCLC) was > 100 µM. For the same compound, the TGI (RPMI-8226 leukemia) was > 100 µM, the TGI (K-562 leukemia) was > 100 µM and the TGI (UACC-257 melanoma) was > 100 µM. The TGI (HT29 colon) was > 100 µM, the TGI (HCT-15 colon) was > 100 µM and the TGI (OVCAR-5 ovarian) was > 100 µM. For the same compound, the TGI (IGROV1 ovarian) was > 100 µM, the TGI (SW-620 colon) was > 100 µM and the TGI (OVCAR-4 ovarian) was > 100 µM. For the same compound, the TGI (SNB-19 CNS) was > 100 µM and the TGI (EKVX NSCLC) was > 100 µM.
